Patent US20090298942A1, “ANIMAL COMPOSITION” (priority 2002, published 2009)

Tested on: dogs
Experiment: Example 2: success at learning the discrimination task (Test B) after twenty two days on the assigned diet
Format: in vivo
Details: 0.3% amino acid added to control food product with approximately 2% leucine
Experimental: The baseline learning capability of each dog was determined in a discrimination task (Test A) allowing the dogs to be divided into two groups, slow and fast learners. The slow and fast learners were randomly assigned to diet A, B, C or D. Dogs remained on their assigned diet for a period of twenty two days and their learning capability was then re evaluated with another discrimination task (Test B). The time to successfully learn the discrimination task, the total number of discrimination attempts, and the proportion of correct responses by each dog was recorded.
Test B was introduced in stages in a similar way to Test A. Again each dog was in the test area for up to an hour depending on the length of time that it took for the dog to complete the task.
Stage 1 The food preference test was repeated where necessary.
Stage 2 The dog was taken down the side of each box and encouraged to enter the food drop area from the rear by throwing food forward into the area.
Stage 3 The handler stood in front of one of the boxes and encouraged the dog to go down the side and into the box on its own. As its head reached the end of the entrance passage food was dropped by hand over the front panel into the area. This was repeated at random with both boxes.
Stage 4 The dog was placed centrally about 2.5 m back from the boxes and a red light was activated. The handler walked forward towards the light encouraging the dog to go forward along the side passage and into the box alone where a food pellet was dropped through the hatch as the dog's head reached the end of the entrance passage.
Stage 5 The dog was placed centrally approximately 3 m away from the equipment. A light was activated and the dog allowed time to scan the equipment. The dog was then released to make its own decision about which box to approach. If and when it entered the correct box a food pellet was dropped into the area.
These five introductory stages took, on average, 20 minutes, depending on the initial reaction of the dog to the surroundings. […]

| Structure (SMILES) | improvement in canine learning |
| --- | --- |
| CC(C)C[C@H](N)C(=O)O [leucine] | measurable improvement in canine learning |
| CC[C@H](C)[C@H](N)C(=O)O [isoleucine] | Statistically significant improvements in canine learning were not demonstrated |
| N[C@@H](Cc1c[nH]c2ccccc12)C(=O)O [tryptophan] | Statistically significant improvements in canine learning were not demonstrated |
